Test results reported in PubChem BioAssay (NCI).
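Tested at 5 concentrations; 48 h exposure; 96-well plates; endpoints linearly interpolated, else capped at highest concentration. Here, GI50 denotes the concentration required for 50% inhibition of growth. TGI: concentration producing complete growth inhibition.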

Experiments:
Test in all cases: growth of human tumour cells (NCI), 48 h
[1] = test system: 786-0 renal
[2] = test system: HCT-15 colon
[3] = test system: UACC-62 melanoma
[4] = test system: LOX IMVI melanoma
[5] = test system: OVCAR-3 ovarian
[6] = test system: MALME-3M melanoma
[7] = test system: HOP-92 NSCLC
[8] = test system: UO-31 renal
[9] = test system: SNB-19 CNS
[10] = test system: T-47D breast

Structure (SMILES)	TGI [1]	TGI [2]	TGI [3]	TGI [4]	TGI [5]	TGI [6]	TGI [7]	TGI [8]	TGI [9]	TGI [10]	GI50 [1]	GI50 [2]	GI50 [3]	GI50 [4]	GI50 [5]	GI50 [7]	GI50 [8]	GI50 [9]	GI50 [6]
OCC(O)CNc1ccnc2cc(Cl)ccc12 (stereo not given)	> 100 µM	> 100 µM	> 100 µM	> 100 µM	> 100 µM	> 100 µM	> 100 µM	> 100 µM	> 100 µM	–	–	–	–	–	–	–	–	–	–
Nc1ccc2[nH]cc(CCC(=O)O)c2c1	> 100 µM	> 100 µM	> 100 µM	> 100 µM	> 100 µM	> 100 µM	–	> 100 µM	> 100 µM	> 100 µM	–	–	–	–	–	–	–	–	–
CCOC(=O)/C(=C/c1cccc(C#N)c1)N(CC)CC	> 100 µM	> 100 µM	> 100 µM	> 100 µM	–	> 100 µM	> 100 µM	> 100 µM	–	–	–	–	–	–	–	–	–	–	–
COc1cc(C2C(C(=O)Nc3cc(F)c(F)cc3F)=C(C)NC(C)=C2C(=O)Nc2cc(F)c(F)cc2F)ccc1O	> 100 µM	–	–	32.9 µM	38 µM	74.5 µM	18.4 µM	35.5 µM	> 100 µM	–	–	–	–	–	–	–	–	–	–
CC(=O)OCCOCNC(=S)N/N=C/c1ccc(Br)s1	> 100 µM	> 100 µM	> 100 µM	> 100 µM	> 100 µM	> 100 µM	> 100 µM	> 100 µM	> 100 µM	–	–	–	–	–	–	–	–	–	–
Cc1cccc(N=C2NC(=O)C(CC(=O)Nc3cccc(C)c3C)S2)c1 (stereo not given)	> 100 µM	–	> 100 µM	> 100 µM	> 100 µM	> 100 µM	> 100 µM	> 100 µM	> 100 µM	–	–	–	–	–	–	–	–	–	–
COC(=O)c1cccc2cccc(C(=O)Nc3ccc(Cl)cc3)c12	> 100 µM	> 53.1 µM	–	> 100 µM	> 100 µM	> 100 µM	> 100 µM	> 100 µM	> 100 µM	–	–	–	–	–	–	–	–	–	–
Oc1ccc(Br)cc1C=Nc1ccc(N=Cc2cc(Br)ccc2O)cc1	> 100 µM	> 100 µM	–	> 100 µM	–	> 100 µM	> 100 µM	> 100 µM	> 100 µM	–	–	–	–	–	–	–	–	–	–
O=C1C(=O)N(c2cc(Cl)ccc2Cl)C(=O)C(=O)C1c1nc2ccccc2o1	> 100 µM	> 100 µM	> 100 µM	> 100 µM	> 100 µM	> 100 µM	> 100 µM	> 100 µM	> 100 µM	–	–	–	–	–	–	–	–	–	–
N#CC(C(=O)CCC(=O)Nc1cccc(C(F)(F)F)c1)c1ccc(Cl)cc1 (stereo not given)	> 100 µM	> 100 µM	> 100 µM	> 100 µM	> 100 µM	> 100 µM	> 100 µM	> 100 µM	> 100 µM	–	–	–	–	–	–	–	–	–	–
COC(=O)/C(=C\c1ccc(N(CCC#N)CCC#N)cc1)NC(=O)c1cc([N+](=O)[O-])ccc1Cl	> 100 µM	> 100 µM	> 100 µM	> 100 µM	> 100 µM	> 100 µM	–	> 100 µM	> 100 µM	–	–	–	–	–	–	–	–	–	–
Cc1ccc(S(=O)(=O)NC(=O)NC2=NC(C)(C)N(c3ccc(Cl)c(Cl)c3)C(N)=N2)cc1	> 100 µM	> 100 µM	> 100 µM	–	> 100 µM	> 100 µM	–	> 100 µM	> 100 µM	> 100 µM	–	–	–	–	–	–	–	–	–
CC1=C(c2cc(C(=O)Nc3ccc(Cl)cc3)nc(=S)[nH]2)Sc2ccccc2N1	> 100 µM	> 100 µM	> 100 µM	> 100 µM	> 100 µM	> 100 µM	> 100 µM	> 100 µM	> 100 µM	–	–	–	–	–	–	–	–	–	–
OCCNCCOc1ccc(/C(=C(/Cl)c2ccccc2)c2ccccc2)cc1	22.2 µM	18.6 µM	26.7 µM	16.6 µM	24.8 µM	–	–	22.2 µM	28.4 µM	–	–	–	–	–	–	–	–	–	–
C=CCn1c2c(sc1=S)C(S)N=CN2 (stereo not given)	> 100 µM	> 100 µM	> 100 µM	> 100 µM	> 100 µM	> 100 µM	55 µM	> 100 µM	> 100 µM	–	–	–	–	–	–	–	–	–	–
CCOC(=O)Cn1c(=O)n(C)c(=O)c2c1ncn2Cc1ccccc1	> 100 µM	> 100 µM	> 100 µM	–	> 100 µM	> 100 µM	> 100 µM	> 100 µM	> 100 µM	–	–	–	–	–	–	–	–	–	–
COc1ccc2c(c1)C(C)Cc1c(ncnc1-n1cnc3cc(C)ccc31)N2C (stereo not given)	15 µM	12.9 µM	18 µM	14.5 µM	14.1 µM	–	15.9 µM	13.1 µM	20.4 µM	–	0.0649 µM	0.207 µM	0.0436 µM	0.0642 µM	0.151 µM	0.329 µM	0.106 µM	0.216 µM	–

Structure (SMILES)	TGI [1]	TGI [2]	TGI [3]	TGI [4]	TGI [5]	TGI [6]	TGI [7]	TGI [8]	TGI [9]	TGI [10]	GI50 [1]	GI50 [2]	GI50 [3]	GI50 [4]	GI50 [5]	GI50 [7]	GI50 [8]	GI50 [9]	GI50 [6]
Cc1cccc(C(C)C)c1NC(=O)C(=O)C(C(=O)c1ccccc1F)C1OC(=O)c2ccccc21 (stereo not given)	36.6 µM	57.3 µM	22.4 µM	32.7 µM	38 µM	26.9 µM	48.2 µM	38.3 µM	29 µM	–	–	–	–	–	–	–	–	–	–
Cc1cc(C(C)(C)C)cc(Cc2cc(C(C)(C)C)cc(Cc3cc(C(C)(C)C)cc(C)c3O)c2O)c1O	18.6 µM	24.3 µM	18.9 µM	21 µM	16.5 µM	22.5 µM	10.5 µM	25.9 µM	26 µM	–	–	–	–	–	–	–	–	–	–
COC(=O)c1cc(/C=C/c2ccc(S(N)(=O)=O)cc2)ccc1O	> 100 µM	> 100 µM	66 µM	> 100 µM	62.7 µM	> 100 µM	> 100 µM	> 100 µM	> 100 µM	–	7.35 µM	27 µM	25.6 µM	30 µM	16.5 µM	25.7 µM	29.1 µM	38.2 µM	34.5 µM
c1ccc(CSc2nc3ccccc3nc2-c2cccs2)cc1	> 100 µM	> 100 µM	–	–	> 100 µM	> 100 µM	> 100 µM	> 100 µM	> 100 µM	–	–	–	–	–	–	–	–	–	–
COC1=C(Br)C(=O)c2nc(C)ccc2C1=O	27.2 µM	27.7 µM	33.2 µM	24.3 µM	19.5 µM	30.5 µM	15.5 µM	32.4 µM	> 55.1 µM	–	–	–	–	–	–	–	–	–	–
O=C(O)CN(c1ccccc1)S(=O)(=O)c1ccc([N+](=O)[O-])cc1	> 100 µM	> 100 µM	> 100 µM	> 100 µM	> 100 µM	> 100 µM	> 100 µM	> 100 µM	> 100 µM	–	–	–	–	–	–	–	–	–	–
N.N.NCCCCCCCCCN.O=C([O-])CC(=O)[O-].O=C([O-])CC(=O)[O-].[Pt+4].[Pt+4]	> 100 µM	> 100 µM	> 100 µM	> 100 µM	> 100 µM	73.3 µM	> 100 µM	> 100 µM	> 100 µM	–	85.8 µM	> 100 µM	23.1 µM	> 100 µM	> 100 µM	> 100 µM	> 100 µM	> 100 µM	28.9 µM
CN(C)CCSc1nccc(-c2cc3ccccc3s2)n1	63.4 µM	37.6 µM	40.4 µM	32.2 µM	> 100 µM	36 µM	33.5 µM	47.6 µM	–	–	–	–	–	–	–	–	–	–	–
CCCCc1c2c(nc3c1CCC/C3=C\c1ccccc1)/C(=C/c1ccccc1)CCC2	> 100 µM	> 100 µM	> 100 µM	> 100 µM	> 100 µM	> 100 µM	–	> 100 µM	> 100 µM	–	–	–	–	–	–	–	–	–	–
CCOc1ccccc1NC(=O)C(=O)Cc1nc2ccccc2s1	> 100 µM	> 100 µM	> 100 µM	–	> 100 µM	> 100 µM	> 100 µM	> 100 µM	> 100 µM	–	–	–	–	–	–	–	–	–	–
CC1CN1c1c(C(=O)/C=C/c2ccc(Cl)cc2)c(-c2ccccc2)nn(C)c1=O (stereo not given)	8.95 µM	3.55 µM	5.69 µM	4.17 µM	6.79 µM	> 10 µM	> 10 µM	> 10 µM	> 10 µM	–	–	–	–	–	–	–	–	–	–
Cc1cccc(C)c1NC(=O)C(=O)CC(=O)c1cccc([N+](=O)[O-])c1	> 100 µM	> 100 µM	> 100 µM	–	> 100 µM	> 100 µM	> 100 µM	> 100 µM	> 100 µM	–	–	–	–	–	–	–	–	–	–
CC(=O)OC1C2CCC1C1C2C2(Cl)C(Cl)=C(Cl)C1(Cl)C2(Cl)Cl (stereo not given)	27.1 µM	–	27 µM	29.1 µM	24 µM	27.1 µM	23.3 µM	25.2 µM	28.6 µM	–	–	–	–	–	–	–	–	–	–
[F][Sn]([F])([c]1ccccc1)[c]1ccccc1	2.98 µM	3.26 µM	5.15 µM	3.29 µM	3 µM	3.33 µM	3.13 µM	3.34 µM	5.58 µM	–	1.57 µM	1.65 µM	1.77 µM	1.7 µM	1.59 µM	1.48 µM	1.92 µM	2.25 µM	1.8 µM
C/C(CCn1[nH]c(=O)ccc1=O)=N\OCCCc1ccccc1	> 100 µM	> 100 µM	> 100 µM	> 100 µM	> 100 µM	> 100 µM	> 100 µM	> 100 µM	> 100 µM	–	–	–	–	–	–	–	–	–	–
CC(C)(C)OC(=O)N1N=NC2C1C1CC(OCc3ccccc3)(OCc3ccccc3)C2O1 (stereo not given)	> 100 µM	> 100 µM	> 100 µM	33.7 µM	> 100 µM	> 100 µM	> 100 µM	> 100 µM	–	–	–	–	–	–	–	–	–	–	–
